In article PMC10895668, “Lead Optimization of the 5-Phenylpyrazolopyrimidinone NPD-2975 toward Compounds with Improved Antitrypanosomal Efficacy” (Journal of Medicinal Chemistry, 2024):

Key:
[1] = human, microsomes, 1 h
[2] = In vivo pharmacokinetics in non-infected mice
Experimental: The antiparasitic assays were carried out exactly as described in Blaazer et al.([39]) Metabolic stability, pharmacokinetics, acute mouse infection model results were collected as described previously.[21] All animal experiments were conducted in compliance with institutional guidelines and following approval by the Ethical Committee of the University of Antwerp, Belgium [UA-ECD 2014–96]. Female Swiss mice (15–20 g), were purchased from Janvier (Le Genest Saint Isle, France). […] Animals were treated PO b.i.d. for 5 days at 25 and 50 mg/kg 31c. For the SL-RNA qPCR experiments blood was collected sublingually and subjected to erythrocyte lysis before extracting RNA with the QIAamp RNA Blood Mini kit (Qiagen). […] Small pieces of fat, brain, and spleen tissue were excised and immediately transferred to RNA later (Qiagen) and incubated overnight at 4 °C. RNA extraction was performed as instructed in the RNeasy Mini Plus Kit manual (Qiagen). The one-step SensiFAST SYBR Hi-Rox PCR kit (Bioline USA Inc., via Gentaur Belgium BVBA, Kampenhout, Belgium) was used for the PCR with the following forward and reverse primers, respectively 5′-[…]-3′ and 5′-[…]-3′. An initial activation step of 10 min at 45 °C and 10 min at 95 °C was used, followed by the amplification step for 40 cycles (15 s at 95 °C, 15 s 50 °C and 15 s at 60 °C). At last, the melting curves were generated with an increment of 0.3 °C (15 s at 95 °C 1 min at 45 °C and 15 s at 95 °C). The PCR was run on the Step One Plus real-time PCR system (Applied Biosystems, California, USA). An additional qPCR was performed with the mouse housekeeping gene Eef2 to confirm successful RNA extraction.
Blood drops were sampled before treatment and at 0.5, 1, 2, 4, 6, and 24 h after PO dosage; samples after IP dosage were identical with an additional time point of 0.25 h. The blood drops were analyzed adopting the dry blood spot technique and analysis by LC-MS^2. Briefly, blood was collected from the retro-orbital complex using capillary tubes and dropped (15 μL) on WhatmanFTADMPK cards (B). The spots were left to air-dry at room temperature for at least 2 h. For analysis, a 6 mm disk was punched out and extracted in 75:25 MeCN/water containing the internal standard tolbutamide. The amount of parent compound was determined using liquid chromatography (UPLC) (Waters Aquity) coupled with tandem quadrupole mass spectrometry (MS^2) (Waters Xevo) equipped with an electrospray ionization (ESI) interface and operated in multiple reaction monitoring mode. Standard curves in whole blood were made for calibration and validation. Standard PK parameters were determined using Topfit software.
Brain tissue of the animals was collected on ice at autopsy 24 h post-treatment (50 mg/kg oral dose) after perfusion. […] The tissues were immediately homogenized using a GentleMacs tissue homogenizer. The tissue samples were subjected to protein precipitation by adding MeCN, followed by a centrifugation step at 4 °C for 5 min at 21, 130 g. The supernatant was further diluted in 75:25 MeCN/water for LC-MS^2 analysis as described above.

[3] = female, Swiss, mouse, in vivo, ip, 10 mg/kg
[4] = female, Swiss, mouse, in vivo, po, 50 mg/kg

For `CC(C)(C)c1n[nH]c2c(=O)[nH]c(-c3ccc(F)cc3)nc12` [31c, 3-(tert-Butyl)-5-(4-fluorophenyl)-1,6-dihydro-7H-pyrazolo[4,3-d]pyrimidin-7-one], the parent compound remaining [1] was “at least 69%”, the “blood concentration exceeding the in vitro IC50 against T. brucei” value ([2]; both routes (10 mg/kg IP, 50 mg/kg PO)) was “more than 300 fold” and the AUC(0-t) at 24 h [2, 3] was 2470 ± 1560 ng·h/mL. For the same molecule, the Cl [2, 3] was 326 ± 148, the Cmax at 24 h [2, 3] was 5.05 ± 1.51 µM and the Tmax at 24 h [2, 3] was 0.5 ± 0.3 h. For the same molecule, the half-life at 24 h [2, 3] was 1.56 ± 0.5 h, the “AUC0–6 h higher compared with 2” value [2, 4] was “more than 7 fold” and the AUC(0-t) at 24 h [2, 4] was 43400 ng·h/mL. The Cl [2, 4] was 11 ± 1, the Cmax at 24 h [2, 4] was 10.9 ± 1.69 µM and the Tmax at 24 h [2, 4] was 6 h. The concentration at 24 h [2, 4] was 0.296 µM and the half-life at 24 h [2, 4] was 3.51 ± 1.34 h.
